Experimental findings from patent US7192746B2, “α-Isomaltosyltransferase, process for producing the same and use thereof” (Kabushiki Kaisha Hayashibara Seibutsu Kagaku Kenkyujo, priority 2000, dated 2007) are described below.

Molecules are shown by their SMILES.

Test in all cases: Specificity to transferring acceptor
What all share (type): biochemical
What all share (set-up): key: −: no saccharide transferred product was formed; ±: a saccharide-transferred product formed in an amount of less than one percent to the total sugars; +: a saccharide-transferred product was formed in an amount of over one percent but below 10% to the total sugars; ++: a saccharide-transferred product was formed in an amount of over 10% to the total sugars

Assay [1] has as its system α-isomaltosyl-transferring enzyme from Bacillus globisporus N75. Conditions: panose as saccharide donor, 10 units/g substrate, 3.2% (w/v), 30° C., pH 6.0, 24 hours. On the procedure:
(§1) Saccharides were tested as follows to examine whether they can be used as transferring acceptors for the α-isomaltosyl-transferring enzyme of the present invention. A solution of D-glucose, D-xylose, L-xylose, D-galactose, D-fructose, D-mannose, D-arabinose, D-fucose, L-sorbose, L-rhamnose, methyl-α-glucoside (or methyl-α-glucopyranoside), methyl-β-glucoside (or methyl-β-glucopyranoside), N-acetyl-D-glucosamine, D-ribose, L-ribose, D-psicose, sorbitol, xylitol, mannitol, arabitol, ribitol, erythritol, maltose, maltotriose, maltotetraose, maltopentaose, isomaltose, isomaltotriose, α,α-trehalose, α,β-trehalose, kojibiose, nigerose, cellobiose, gentibiose, isopanose, maltitol, maltotriitol, lactose, sucrose, erlose, isomaltosylglucoside, α-cyclodextrin, β-cyclodextrin, γ-cyclodextrin, or L-ascorbic acid was prepared. To each solution was added panose as a saccharide donor to give an equal concentration, admixed with 10 units/g substrate of a purified specimen of either α-isomaltosyl-transferring enzyme from Bacillus globisporus C9 obtained by the method in Experiment 4, Bacillus globisporus C11 obtained by the method in Experiment 7, Bacillus globisporus N75 obtained by the method in Experiment 11, or Arthrobacter ramosus S1 obtained by the method in Experiment 15, or a partially purified specimen of α-isomaltosyl-transferring enzyme from Arthrobacter globiformis A19 obtained by the method in Experiment 18, followed by adjusting the saccharide concentration to 3.2% (w/v). The mixtures thus obtained were enzymatically reacted at 30° C. and Ph 6.0 for 24 hours. The saccharide composition of the resulting reaction mixtures were analyzed on gas chromatography (abbreviated as “GLC” hereinafter) for monosaccharides and disaccharides as testing saccharides, and on HPLC for tri- or higher-saccharides as testing saccharides to confirm whether these saccharides can be used as transferring acceptors for the above enzymes with an index of the positive or negative formation of a saccharide transferred product. In performing GLC, the following apparatuses and conditions were used: GLC apparatus, “GC-16A” commercialized by Shimadzu Corporation, Tokyo, Japan; column, a stainless-steel column, 3 mm in diameter and 2 m in length, packed with 2% “SILICONE OV-17/[…]”, commercialized by GL Sciences Inc., Tokyo, Japan; carrier gas, nitrogen gas at a flow rate of 40 ml/min under temperature conditions of increasing from 160° C. to 320° C. at an increasing temperature rate of 7.5° C./min; and detection, a hydrogen flame ionization detector. In the case of HPLC analysis, the apparatuses and conditions used were: HPLC apparatus, “CCPD” commercialized by Tosoh Corporation, Tokyo, Japan; column, “ODS-AQ-303” commercialized by YMC Co., Ltd., Tokyo, Japan; eluent, water at a flow rate of 0.5 ml/min; and detection, a differential refractometer.

In assay [2] the test system is α-isomaltosyl-transferring enzyme from Arthrobacter ramosus S1. Conditions: panose as saccharide donor, 10 units/g substrate, 3.2% (w/v), 30° C., pH 6.0, 24 hours. The method, then:
as §1

For assay [3], the system named is α-isomaltosyl-transferring enzyme from Bacillus globisporus C9. Conditions: panose as saccharide donor, 10 units/g substrate, 3.2% (w/v), 30° C., pH 6.0, 24 hours. On the procedure: as §1
Assay [4] deals with α-isomaltosyl-transferring enzyme from Bacillus globisporus C11. Conditions: panose as saccharide donor, 10 units/g substrate, 3.2% (w/v), 30° C., pH 6.0, 24 hours. On the procedure:
as §1

In assay [5] the test system is α-isomaltosyl-transferring enzyme from Arthrobacter globiformis A19. Conditions: partially purified enzyme, panose as saccharide donor, 10 units/g substrate, 3.2% (w/v), 30° C., pH 6.0, 24 hours. The method, then: as §1

As for `OC[C@H]1O[C@@](CO)(O[C@H]2O[C@H](CO)[C@@H](O[C@H]3O[C@H](CO)[C@@H](O)[C@H](O)[C@H]3O)[C@H](O)[C@H]2O)[C@@H](O)[C@@H]1O` [Erlose, erlose], the “Product of transferring reaction, Enzyme of Strain N75” value (from here on “Product … of Strain N75”) in assay [1] is reported as “+ (a saccharide-transferred product was formed in an amount of over one percent but below 10% to the total sugars)”. In addition, the “Product of transferring reaction, Enzyme of Strain S1” value (from here on “Product … of Strain S1”) in assay [2] is “+ (a saccharide-transferred product was formed in an amount of over one percent but below 10% to the total sugars)”. Moreover, the “Product of transferring reaction, Enzyme of Strain C9” value (“Product … of Strain C9” for short) in assay [3] was “+ (a saccharide-transferred product was formed in an amount of over one percent but below 10% to the total sugars)”. Moreover, the “Product of transferring reaction, Enzyme of Strain C11” value (“Product … of Strain C11” for short) in assay [4] was “+ (a saccharide-transferred product was formed in an amount of over one percent but below 10% to the total sugars)”. Also, the “Product of transferring reaction, Enzyme of Stain A19” value (from here on “Product … of Stain A19”) in assay [5] is “+ (a saccharide-transferred product was formed in an amount of over one percent but below 10% to the total sugars)”.

Take `OC[C@@H](O)[C@@H](O)CO` [Erythritol, erythritol]: the “Product … of Strain N75” value in assay [1] was “+ (a saccharide-transferred product was formed in an amount of over one percent but below 10% to the total sugars)”. In assay [2], the “Product … of Strain S1” value is “+ (a saccharide-transferred product was formed in an amount of over one percent but below 10% to the total sugars)”. In addition, the “Product … of Strain C9” value in assay [3] was “+ (a saccharide-transferred product was formed in an amount of over one percent but below 10% to the total sugars)”. The “Product … of Strain C11” value in assay [4] is recorded as “+ (a saccharide-transferred product was formed in an amount of over one percent but below 10% to the total sugars)”. In assay [5], the “Product … of Stain A19” value is “± (a saccharide-transferred product formed in an amount of less than one percent to the total sugars)”.

Consider `O=C1O[C@H]([C@@H](O)CO)C(O)=C1O` [L-Ascorbic acid, L-ascorbic acid], for which the “Product … of Strain N75” value in assay [1] is recorded as “++ (a saccharide-transferred product was formed in an amount of over 10% to the total sugars)”. Moreover, the “Product … of Strain S1” value in assay [2] was “++ (a saccharide-transferred product was formed in an amount of over 10% to the total sugars)”. Moreover, the “Product … of Strain C9” value in assay [3] is recorded as “++ (a saccharide-transferred product was formed in an amount of over 10% to the total sugars)”. In assay [4], the “Product … of Strain C11” value was “++ (a saccharide-transferred product was formed in an amount of over 10% to the total sugars)”. The “Product … of Stain A19” value in assay [5] was “+ (a saccharide-transferred product was formed in an amount of over one percent but below 10% to the total sugars)”.

Take `C[C@H](O)[C@H](O)[C@@H](O)[C@@H](O)C=O` [L-Rhamnose, L-rhamnose]: in assay [1], the “Product … of Strain N75” value is given as “± (a saccharide-transferred product formed in an amount of less than one percent to the total sugars)”. In addition, the “Product … of Strain S1” value in assay [2] is “+ (a saccharide-transferred product was formed in an amount of over one percent but below 10% to the total sugars)”. Further, the “Product … of Strain C9” value in assay [3] was “± (a saccharide-transferred product formed in an amount of less than one percent to the total sugars)”. For the same compound, in assay [4], the “Product … of Strain C11” value was “± (a saccharide-transferred product formed in an amount of less than one percent to the total sugars)”. In assay [5], the “Product … of Stain A19” value is listed as “± (a saccharide-transferred product formed in an amount of less than one percent to the total sugars)”.

On to `O=C[C@@H](O)[C@@H](O)[C@@H](O)CO` [L-Ribose, L-ribose], for which the “Product … of Strain N75” value in assay [1] was “−”. In addition, the “Product … of Strain S1” value in assay [2] is “++ (a saccharide-transferred product was formed in an amount of over 10% to the total sugars)”. Besides, the “Product … of Strain C9” value in assay [3] is “−”. Further, the “Product … of Strain C11” value in assay [4] is listed as “−”. The “Product … of Stain A19” value in assay [5] was “± (a saccharide-transferred product formed in an amount of less than one percent to the total sugars)”.

As for `O=C(CO)[C@@H](O)[C@H](O)[C@@H](O)CO` [L-Sorbose, L-sorbose], the “Product … of Strain N75” value in assay [1] is listed as “+ (a saccharide-transferred product was formed in an amount of over one percent but below 10% to the total sugars)”. Also, the “Product … of Strain S1” value in assay [2] is listed as “+ (a saccharide-transferred product was formed in an amount of over one percent but below 10% to the total sugars)”. The “Product … of Strain C9” value in assay [3] is “+ (a saccharide-transferred product was formed in an amount of over one percent but below 10% to the total sugars)”. Besides, in assay [4], the “Product … of Strain C11” value is “+ (a saccharide-transferred product was formed in an amount of over one percent but below 10% to the total sugars)”. Moreover, the “Product … of Stain A19” value in assay [5] was “+ (a saccharide-transferred product was formed in an amount of over one percent but below 10% to the total sugars)”.

In the case of `O=C[C@@H](O)[C@H](O)[C@@H](O)CO` [L-Xylose, L-xylose], in assay [1], the “Product … of Strain N75” value is reported as “++ (a saccharide-transferred product was formed in an amount of over 10% to the total sugars)”. In assay [2], the “Product … of Strain S1” value was “++ (a saccharide-transferred product was formed in an amount of over 10% to the total sugars)”. Further, the “Product … of Strain C9” value in assay [3] is on record as “++ (a saccharide-transferred product was formed in an amount of over 10% to the total sugars)”. Further, the “Product … of Strain C11” value in assay [4] is given as “++ (a saccharide-transferred product was formed in an amount of over 10% to the total sugars)”. Besides, the “Product … of Stain A19” value in assay [5] is reported as “++ (a saccharide-transferred product was formed in an amount of over 10% to the total sugars)”.

Turning to `OC[C@@H](O)[C@@H](O)[C@H](O)[C@H](O)CO` [Mannitol, mannitol], the “Product … of Strain N75” value in assay [1] is “−”. For the same compound, the “Product … of Strain S1” value in assay [2] is recorded as “−”. For the same compound, in assay [3], the “Product … of Strain C9” value was “−”. Besides, the “Product … of Strain C11” value in assay [4] is “−”. Further, the “Product … of Stain A19” value in assay [5] is “−”.

Turning to `CO[C@H]1O[C@H](CO)[C@@H](O)[C@H](O)[C@H]1O` [Methyl-α-glucoside, methyl-α-glucoside], in assay [1], the “Product … of Strain N75” value is “++ (a saccharide-transferred product was formed in an amount of over 10% to the total sugars)”. Also, the “Product … of Strain S1” value in assay [2] was “++ (a saccharide-transferred product was formed in an amount of over 10% to the total sugars)”. Further, the “Product … of Strain C9” value in assay [3] is “++ (a saccharide-transferred product was formed in an amount of over 10% to the total sugars)”. For the same compound, the “Product … of Strain C11” value in assay [4] is reported as “++ (a saccharide-transferred product was formed in an amount of over 10% to the total sugars)”. In addition, the “Product … of Stain A19” value in assay [5] is “++ (a saccharide-transferred product was formed in an amount of over 10% to the total sugars)”.
